# How the values were obtained:
# Test in all cases: Drug sensitivity assay (cell growth test), sulforhodamine B
# Format in all cases: cell-based
# HCC1187 (IM) cells = conditions: Homo sapiens, 72 hours, read-out: inhibition rate (%) by wortmannin, classification by grid analysis
# Experimental: (§1) Cultured cells were treated with a MEK inhibitor and a PI3K inhibitor in various concentrations, and cell lines sensitive to MEK and PI3K were classified by calculating a cell growth inhibition rate. The culture method and analysis method are as follows.
# (§2) Thirteen types of cells used in the present study, HCC38 (BL1), MDA-MB-231 (MSL), DU4475 (IM), HCC1187 (IM), HCC1143 (BL1), HCC1395 (LAR), HCC1937 (BL1), MDA-MB-453 (LAR), HCC70 (BL2), HS578T (MSL), MDA-MB-157 (MSL) and MDA-MB-468 (BL1), were obtained from American type culture collection (ATCC), and SUM185PE (LAR) was obtained from ASTERAND BIOSCIENCE. All the cells belong to triple negative breast cancer (TNBC), and it is known which of six types (BL1, BL2, M, MSL, IM and LAR) these belong to by an existing classification method.
# (§3) All the cells were cultured in a medium designated from a source of supply, and 2 mM L-glutamine and 10% fetal bovine serum (FBS) were supplemented.
# (§4) Each type of cells was seeded in a 96 well titer plate at 1×10^4 cells/well, and trametinib, an MEK inhibitor (Medchem Express; 0.08, 0.16, 0.31, 0.63, 1.25, 2.5, 5, 10 and 20 μM), and wortmannin, a PI3K inhibitor (Wako Pure Chemical Industries, Ltd.; 0.08, 0.16, 0.31, 0.63, 1.25, 2.5, 5, 10 and 20 μM) were dissolved in Dimethyl Sulfoxide [DMSO] (Wako Pure Chemical Industries, Ltd.) in various concentrations and treated. In addition, the effect on cell growth was examined at 72 hours after the inhibitor by sulforhodamine B assay (manufactured by SIGMA-ALDRICH), and 50 μL of sulforhodamine B solution was added to each well and cells were left at room temperature for an hour for staining. The staining degree of metabolically survival cells was examined by monitoring absorbance at a wavelength of 565 nm using a microtiter plate. The absorbance of cells which were not treated with trametinib and wortmannin (treated with DMSO) was used as a control and defined as 100% to calculate a cell growth inhibition rate.
# (§5) The cell lines were classified into 4 types, cell lines sensitive to wortmannin (hereinafter, PA), cell lines sensitive to trametinib (hereinafter, MA), cell lines resistant to wortmannin and trametinib (hereinafter, R), and others (hereinafter, S). In the classification, first the inhibition rate of each drug was calculated in a concentration of 1 μM, and the inhibition rate (%) by trametinib and the inhibition rate (%) by wortmannin were plotted on the X axis and Y axis respectively on a graph.
# as §5, with “100 nM,” for “1 μM,”
# as §5, with “10” for “1”, “graph. Using a 50% growth inhibition rate as an index of the inhibitive effect of a drug, cells were classified into 4 types by grid analysis.” for “graph.”
# HCC1395 (LAR) cells = conditions: Homo sapiens, 72 hours, read-out: inhibition rate (%) by wortmannin, classification by grid analysis
# Experimental: as §1, §2, §3, §4, §5
# as §5, with “100 nM,” for “1 μM,”
# as §5, with “10” for “1”, “graph. Using a 50% growth inhibition rate as an index of the inhibitive effect of a drug, cells were classified into 4 types by grid analysis.” for “graph.”
# HCC1937 (BL1) cells = conditions: Homo sapiens, 72 hours, read-out: inhibition rate (%) by wortmannin, classification by grid analysis
# Experimental: as §1, §2, §3, §4, §5
# as §5, with “100 nM,” for “1 μM,”
# as §5, with “10” for “1”, “graph. Using a 50% growth inhibition rate as an index of the inhibitive effect of a drug, cells were classified into 4 types by grid analysis.” for “graph.”
# HCC38 (BL1) cells = conditions: Homo sapiens, 72 hours, read-out: inhibition rate (%) by wortmannin, classification by grid analysis
# Experimental: as §1, §2, §3, §4, §5
# as §5, with “100 nM,” for “1 μM,”
# as §5, with “10” for “1”, “graph. Using a 50% growth inhibition rate as an index of the inhibitive effect of a drug, cells were classified into 4 types by grid analysis.” for “graph.”
# HCC70 (BL2) cells = conditions: Homo sapiens, 72 hours, read-out: inhibition rate (%) by wortmannin, classification by grid analysis
# Experimental: as §1, §2, §3, §4, §5
# as §5, with “100 nM,” for “1 μM,”
# as §5, with “10” for “1”, “graph. Using a 50% growth inhibition rate as an index of the inhibitive effect of a drug, cells were classified into 4 types by grid analysis.” for “graph.”
# HS578T (MSL) cells = conditions: Homo sapiens, Hs-578T, 72 hours, read-out: inhibition rate (%) by wortmannin, classification by grid analysis
# Experimental: as §1, §2, §3, §4, §5
# as §5, with “100 nM,” for “1 μM,”
# as §5, with “10” for “1”, “graph. Using a 50% growth inhibition rate as an index of the inhibitive effect of a drug, cells were classified into 4 types by grid analysis.” for “graph.”
# MDA-MB-453 (LAR) cells = conditions: Homo sapiens, 72 hours, read-out: inhibition rate (%) by wortmannin, classification by grid analysis
# Experimental: as §1, §2, §3, §4, §5
# as §5, with “100 nM,” for “1 μM,”
# as §5, with “10” for “1”, “graph. Using a 50% growth inhibition rate as an index of the inhibitive effect of a drug, cells were classified into 4 types by grid analysis.” for “graph.”
# MDA-MB-468 (BL1) cells = conditions: Homo sapiens, 72 hours, read-out: inhibition rate (%) by wortmannin, classification by grid analysis
# Experimental: as §1, §2, §3, §4, §5
# as §5, with “100 nM,” for “1 μM,”
# as §5, with “10” for “1”, “graph. Using a 50% growth inhibition rate as an index of the inhibitive effect of a drug, cells were classified into 4 types by grid analysis.” for “graph.”
# SUM185PE (LAR) cells = conditions: Homo sapiens, 72 hours, read-out: inhibition rate (%) by wortmannin, classification by grid analysis
# Experimental: as §1, §2, §3, §4, §5
# as §5, with “100 nM,” for “1 μM,”
# as §5, with “10” for “1”, “graph. Using a 50% growth inhibition rate as an index of the inhibitive effect of a drug, cells were classified into 4 types by grid analysis.” for “graph.”
# [1] = 100 nM, index 12.5% growth inhibition rate
# [2] = 1 μM, index 25% growth inhibition rate
# [3] = 10 μM, index 50% growth inhibition rate
compound,measurement,setting,value
"COC[C@H]1OC(=O)c2coc3c2[C@@]1(C)C1=C(C3=O)[C@@H]2CCC(=O)[C@@]2(C)C[C@H]1OC(C)=O [wortmannin, Wortmannin]",inhibition at 0.1 µM,"HCC1187 (IM) cells; HCC1187, 100 nM, index 12.5% growth inhibition rate",< 12.5%
same,inhibition at 1 µM,"HCC1187 (IM) cells; HCC1187, 1 μM, index 25% growth inhibition rate",< 25%
same,inhibition at 10 µM,"HCC1187 (IM) cells; HCC1187, 10 μM, index 50% growth inhibition rate",< 50%
same,inhibition at 0.1 µM,"HCC1395 (LAR) cells; HCC1395, 100 nM, index 12.5% growth inhibition rate",< 12.5%
same,inhibition at 1 µM,"HCC1395 (LAR) cells; HCC1395, 1 μM, index 25% growth inhibition rate",< 25%
same,inhibition at 10 µM,"HCC1395 (LAR) cells; HCC1395, 10 μM, index 50% growth inhibition rate",< 50%
same,inhibition at 0.1 µM,"HCC1937 (BL1) cells; HCC1937, 100 nM, index 12.5% growth inhibition rate",< 12.5%
same,inhibition at 1 µM,"HCC1937 (BL1) cells; HCC1937, 1 μM, index 25% growth inhibition rate",< 25%
same,inhibition at 10 µM,"HCC1937 (BL1) cells; HCC1937, 10 μM, index 50% growth inhibition rate",< 50%
same,inhibition at 0.1 µM,"HCC38 (BL1) cells; HCC38, 100 nM, index 12.5% growth inhibition rate",< 12.5%
same,inhibition at 1 µM,"HCC38 (BL1) cells; HCC38, 1 μM, index 25% growth inhibition rate",< 25%
same,inhibition at 10 µM,"HCC38 (BL1) cells; HCC38, 10 μM, index 50% growth inhibition rate",< 50%
same,inhibition at 0.1 µM,"HCC70 (BL2) cells; HCC70, 100 nM, index 12.5% growth inhibition rate",> 12.5%
same,inhibition at 1 µM,"HCC70 (BL2) cells; HCC70, 1 μM, index 25% growth inhibition rate",> 25%
same,inhibition at 10 µM,"HCC70 (BL2) cells; HCC70, 10 μM, index 50% growth inhibition rate",> 50%
same,inhibition at 0.1 µM,HS578T (MSL) cells; [1],< 12.5%
same,inhibition at 1 µM,HS578T (MSL) cells; [2],< 25%
same,inhibition at 10 µM,HS578T (MSL) cells; [3],< 50%
same,inhibition at 0.1 µM,"MDA-MB-453 (LAR) cells; MDA-MB-453, 100 nM, index 12.5% growth inhibition rate",> 12.5%
same,inhibition at 1 µM,"MDA-MB-453 (LAR) cells; MDA-MB-453, 1 μM, index 25% growth inhibition rate",> 25%
same,inhibition at 10 µM,"MDA-MB-453 (LAR) cells; MDA-MB-453, 10 μM, index 50% growth inhibition rate",> 50%
same,inhibition at 0.1 µM,"MDA-MB-468 (BL1) cells; MDA-MB-468, 100 nM, index 12.5% growth inhibition rate",> 12.5%
same,inhibition at 1 µM,"MDA-MB-468 (BL1) cells; MDA-MB-468, 1 μM, index 25% growth inhibition rate",> 25%
same,inhibition at 10 µM,"MDA-MB-468 (BL1) cells; MDA-MB-468, 10 μM, index 50% growth inhibition rate",> 50%
same,inhibition at 0.1 µM,SUM185PE (LAR) cells; [1],> 12.5%
same,inhibition at 1 µM,SUM185PE (LAR) cells; [2],> 25%
same,inhibition at 10 µM,SUM185PE (LAR) cells; [3],> 50%

# From patent US10995359B2, “Method for determining drug-sensitive human cell lines by analysis method in which measurement of activity of two types of protein kinase is used” (NITTO BOSEKI CO., LTD., priority 2015, dated 2021)
